# Measurements from publication PMC6028563, “Probing Substituents in the 1- and 3-Position: Tetrahydropyrazino-Annelated Water-Soluble Xanthine Derivatives as Multi-Target Drugs With Potent Adenosine Receptor Antagonistic Activity” (Frontiers in Chemistry, 2018).
# Tests used:
# human A2B AR = biological target: T1, human A2B AR (Homo sapiens, UniProt P29275); experiment: Radioligand binding assay at human A2B AR vs. [^3H]PSB-603; conditions: for Ki: CHO cell membranes, n = 2 (n = 3 where marked a), read-out: Ki ± SEM, A2B vs. [^3H]PSB-603; for inhibition at 1 µM: at 1,000 nM
# T1 construct: expressed in transfected cells; host or cells: CHO cells
# T1 sequence (P29275 1-332): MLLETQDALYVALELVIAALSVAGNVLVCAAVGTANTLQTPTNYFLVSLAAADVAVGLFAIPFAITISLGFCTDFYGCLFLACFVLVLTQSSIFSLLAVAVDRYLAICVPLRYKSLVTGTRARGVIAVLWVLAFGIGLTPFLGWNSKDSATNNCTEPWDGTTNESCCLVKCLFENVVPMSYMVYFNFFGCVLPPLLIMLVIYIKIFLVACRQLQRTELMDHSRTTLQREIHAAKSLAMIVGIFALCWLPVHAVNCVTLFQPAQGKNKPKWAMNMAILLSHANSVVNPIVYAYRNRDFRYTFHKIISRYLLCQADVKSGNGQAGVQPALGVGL
# Description: (§1) Membrane preparations and radioligand binding assays at rat A1 (rat brain cortex) and rat A2A ARs (rat brain striatum) were performed as previously described (Ozola et al., [2003]; Alnouri et al., [2015]). For assays at human A1, A2A, A2B, and A3 ARs, CHO cell membranes expressing one of the human AR subtypes were used as previously reported (Klotz et al., [1998]; Alnouri et al., [2015]; De Filippo et al., [2016]).
# (§2) The synthesized tetrahydropyrazino[2,1-f ]purinediones 13–20 were evaluated in radioligand binding assays for their affinity to A1 ARs of rat brain cortical membrane and to A2A ARs of rat brain striatal membrane preparations. Selected compounds were further investigated for their affinity to human A1 and A2A ARs recombinantly expressed in Chinese hamster ovary (CHO) cells. All compounds were additionally investigated for their affinity to human A2B and A3 ARs recombinantly expressed in CHO cells to determine their AR subtype selectivity. […] It is well known that all xanthine derivatives lacking a ribose moiety, including tricyclic compounds, can only block ARs, but never act as AR agonists; therefore, additional functional studies were not required. […] Potent MAO-B inhibitors were additionally investigated for inhibition of human MAO-A to assess their selectivity. Results are presented in Tables 1–6, and data of standard ligands are included for comparison.
# recombinant human MAO-B = biological target: T2, recombinant human MAO-B (Homo sapiens, UniProt P27338); experiment: Monoamine oxidase assay (Amplex Red), MAO-B; type: biochemical; conditions: for inhibition at 10 µM: at 10,000 nM (10 μM), read-out: % inhibition at indicated concentration, Human MAO-B; for IC50: n = 3, read-out: IC50 ± SEM, Human MAO-B
# T2 construct: purchased Sigma-Aldrich M7441; host or cells: baculovirus-infected insect cells
# T2 sequence (P27338 1-520): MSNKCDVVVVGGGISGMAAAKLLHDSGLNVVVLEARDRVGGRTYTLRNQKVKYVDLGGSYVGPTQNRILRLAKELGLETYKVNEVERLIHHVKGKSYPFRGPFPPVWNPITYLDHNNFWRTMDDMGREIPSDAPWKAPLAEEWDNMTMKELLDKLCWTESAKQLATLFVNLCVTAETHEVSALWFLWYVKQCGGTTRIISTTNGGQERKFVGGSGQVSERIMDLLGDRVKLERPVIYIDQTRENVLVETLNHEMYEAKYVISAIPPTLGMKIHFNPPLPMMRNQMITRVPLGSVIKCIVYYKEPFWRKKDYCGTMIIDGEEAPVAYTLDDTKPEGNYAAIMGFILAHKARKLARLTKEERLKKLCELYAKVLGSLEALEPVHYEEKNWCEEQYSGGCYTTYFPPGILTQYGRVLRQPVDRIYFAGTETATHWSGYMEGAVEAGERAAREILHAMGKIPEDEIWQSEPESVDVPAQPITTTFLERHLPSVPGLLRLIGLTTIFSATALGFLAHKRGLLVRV
# Description: The determination of MAO-A and MAO-B inhibition was performed using commercially available recombinant human MAO-A and MAO-B enzymes expressed in baculovirus-infected insects sells (Sigma-Aldrich, M7316 and M7441) applying the commercially available Amplex® Red monoamine oxidase assay kit (Invitrogen A12214). The assays were performed as previously described. The determination of rat MAO-B inhibition was performed using mitochondrial-enriched fractions from male Sprague Dawley rat livers. […]
# human A3 AR = biological target: T3, human A3 AR (Homo sapiens, UniProt P0DMS8); experiment: Radioligand binding assay at human A3 AR vs. [^3H]PSB-11; conditions: for Ki: CHO cell membranes, n = 2 (n = 3 where marked a), read-out: Ki ± SEM, A3 vs. [^3H]PSB-11; for inhibition at 10 µM: at 10,000 nM, read-out: % inhibition of radioligand binding at indicated concentration, A3 vs. [^3H]PSB-11
# T3 construct: expressed in transfected cells; host or cells: CHO cells
# T3 sequence (P0DMS8 1-318): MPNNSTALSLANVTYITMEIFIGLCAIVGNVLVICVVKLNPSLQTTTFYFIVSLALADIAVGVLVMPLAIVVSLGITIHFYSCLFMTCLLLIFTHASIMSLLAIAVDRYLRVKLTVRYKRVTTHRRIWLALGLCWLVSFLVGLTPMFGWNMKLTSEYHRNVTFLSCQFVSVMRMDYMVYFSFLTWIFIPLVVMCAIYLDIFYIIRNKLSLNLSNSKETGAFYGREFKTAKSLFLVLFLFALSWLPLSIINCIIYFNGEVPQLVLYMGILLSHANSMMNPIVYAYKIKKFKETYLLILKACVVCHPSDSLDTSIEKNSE
# Description: as §1, §2
# rat A2A AR = biological target: T4, rat A2A AR (Rattus norvegicus, UniProt P30543); experiment: Radioligand binding assay at rat A2A AR (rat brain striatum) vs. [^3H]MSX-2; conditions: rat (r); for Ki: rat brain striatum, n = 3, read-out: Ki ± SEM, A2A vs. [^3H]MSX-2; for % inhibition of radioligand binding at indicated concentration, A2A vs. [^3H]MSX-2: at 1,000 nM
# T4 construct: A2A ARs of rat brain striatal membrane preparations; from tissue; host or cells: rat brain striatum membranes
# T4 sequence (P30543 whole entry): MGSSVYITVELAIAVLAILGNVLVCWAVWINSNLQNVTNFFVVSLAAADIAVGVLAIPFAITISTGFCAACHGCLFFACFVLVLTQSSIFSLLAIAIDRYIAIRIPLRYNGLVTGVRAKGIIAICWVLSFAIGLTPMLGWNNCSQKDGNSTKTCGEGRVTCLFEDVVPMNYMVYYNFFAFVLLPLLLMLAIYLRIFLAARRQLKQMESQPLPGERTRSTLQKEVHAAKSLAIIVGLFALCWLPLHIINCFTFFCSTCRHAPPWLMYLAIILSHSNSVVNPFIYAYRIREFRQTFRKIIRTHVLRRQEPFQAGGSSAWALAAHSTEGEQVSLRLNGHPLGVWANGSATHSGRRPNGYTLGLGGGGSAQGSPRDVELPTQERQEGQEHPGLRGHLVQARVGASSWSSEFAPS
# Description: as §1, §2
# rat A1 AR = biological target: T5, rat A1 AR (Rattus norvegicus, UniProt P25099); experiment: Radioligand binding assay at rat A1 AR (rat brain cortex) vs. [^3H]CCPA; conditions: rat (r); for Ki: rat brain cortex, n = 3; for inhibition at 1.5 µM: read-out: % inhibition of radioligand binding at indicated concentration, A1 vs. [^3H]CCPA, at 1,500 nM
# T5 construct: A1 ARs of rat brain cortical membrane; from tissue; host or cells: rat brain cortex membranes
# T5 sequence (P25099 1-326): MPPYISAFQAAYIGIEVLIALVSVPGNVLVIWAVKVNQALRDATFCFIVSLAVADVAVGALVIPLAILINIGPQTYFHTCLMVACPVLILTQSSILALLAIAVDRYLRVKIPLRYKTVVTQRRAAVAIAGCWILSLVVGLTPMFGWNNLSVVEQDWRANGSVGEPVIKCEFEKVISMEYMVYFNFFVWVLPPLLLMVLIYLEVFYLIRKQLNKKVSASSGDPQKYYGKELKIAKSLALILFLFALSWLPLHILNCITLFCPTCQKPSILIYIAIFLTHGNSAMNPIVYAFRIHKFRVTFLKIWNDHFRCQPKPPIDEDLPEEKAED
# Description: as §1, §2
# [1] = read-out: % inhibition of radioligand binding at indicated concentration, A2B vs. [^3H]PSB-603
Ki (human A2B AR),inhibition at 1 µM (human A2B AR; [1]),inhibition at 10 µM (recombinant human MAO-B),IC50 (recombinant human MAO-B),Ki (human A3 AR),Ki (rat A2A AR),Ki (rat A1 AR),inhibition at 10 µM (human A3 AR),"% inhibition of radioligand binding at indicated concentration, A2A vs. [^3H]MSX-2 (rat A2A AR)",inhibition at 1.5 µM (rat A1 AR),"inhibition at 0.1 µM (human A2B AR; at 100 nM, read-out: % inhibition of radioligand binding at indicated concentration, A2B vs. [^3H]PSB-603)","inhibition at 0.3 µM (human A2B AR; at 300 nM, read-out: % inhibition of radioligand binding at indicated concentration, A2B vs. [^3H]PSB-603)",Structure (SMILES)
> 1000 nM,8%,13%,> 10000 nM,3640 nM,1580 nM,1670 nM,,,,,,"C#CCn1c(=O)c2c(nc3n2CCN(c2ccc(OC)c(OC)c2)C3)n(CC)c1=O [Compound 20d, 8-(3,4-dimethoxyphenyl)-1-ethyl-3-propargyl-6,7,8,9-tetrahydropyrazino[2,1-f]purine-2,4(1H,3H)-dione]"
> 1000 nM,9%,3%,> 10000 nM,> 10000 nM,7400 nM,3800 nM,12%,,,,,C#CCn1c(=O)c2c(nc3n2CCN(CCc2ccc(OC)c(OC)c2)C3)n(CC)c1=O [Compound 20l]
> 1000 nM,1%,,,~10000 nM,> 1000 nM,> 1500 nM,45%,15%,1%,,,"Cn1c(=O)[nH]c(=O)c2c1nc1n2CCN(CCc2cccc(Br)c2)C1 [Compound 13d, 8-(3-bromophenethyl)-1-methyl-6,7,8,9-tetrahydropyrazino[2,1-f]purine-2,4(1H,3H)-dione]"
> 1000 nM,18%,54%,~10000 nM,> 10000 nM,> 1000 nM,> 1500 nM,49%,1%,3%,,,"Cn1c(=O)[nH]c(=O)c2c1nc1n2CCN(CCc2cccc(Cl)c2)C1 [Compound 13c, 8-(3-chlorophenethyl)-1-methyl-6,7,8,9-tetrahydropyrazino[2,1-f]purine-2,4(1H,3H)-dione]"
> 100 nM,,32%,> 10000 nM,18600 nM,> 1000 nM,> 1500 nM,,7%,9%,1%,,"CCn1c(=O)c2c(nc3n2CCN(Cc2ccc(C(F)(F)F)cc2)C3)n(C)c1=O [Compound 14f, 3-ethyl-1-methyl-8-(4-(trifluoromethyl)benzyl)-6,7,8,9-tetrahydropyrazino[2,1-f]purine-2,4(1H,3H)-dione]"
> 1000 nM,8%,29%,> 10000 nM,4270 nM,1380 nM,1140 nM,,,,,,"C#CCn1c(=O)c2c(nc3n2CCN(c2ccccc2F)C3)n(CC)c1=O [Compound 20a, 1-ethyl-8-(2-fluorophenyl)-3-propargyl-6,7,8,9-tetrahydropyrazino[2,1-f]purine-2,4(1H,3H)-dione]"
> 1000 nM,2%,14%,> 10000 nM,> 10000 nM,> 1000 nM,> 1500 nM,35%,5%,-1%,,,"Cn1c(=O)[nH]c(=O)c2c1nc1n2CCN(Cc2cccc(C(F)(F)F)c2)C1 [Compound 13b, 1-methyl-8-(3-(trifluoromethyl)benzyl)-6,7,8,9-tetrahydropyrazino[2,1-f]purine-2,4(1H,3H)-dione]"
> 1000 nM,7%,27%,> 10000 nM,> 10000 nM,> 1000 nM,> 1500 nM,40%,13%,6%,,,"CCn1c(=O)c2c(nc3n2CCN(Cc2cc(C(F)(F)F)cc(C(F)(F)F)c2)C3)n(CC)c1=O [Compound 15q, 8-(3,5-bis(trifluoromethyl)benzyl)-1,3-diethyl-6,7,8,9-tetrahydropyrazino[2,1-f]purine-2,4(1H,3H)-dione]"
> 1000 nM,10%,25%,> 10000 nM,> 10000 nM,2700 nM,1600 nM,22%,,,,,"C#CCn1c(=O)c2c(nc3n2CCN(CCc2ccc(OC)cc2)C3)n(CC)c1=O [Compound 20k, 1-ethyl-8-(4-methoxyphenethyl)-3-propargyl-6,7,8,9-tetrahydropyrazino[2,1-f]purine-2,4(1H,3H)-dione]"
> 300 nM,,47%,~10000 nM,> 10000 nM,> 1000 nM,> 1500 nM,39%,4%,9%,,8%,"Cn1c(=O)[nH]c(=O)c2c1nc1n2CCN(CCc2cccc(C(F)(F)F)c2)C1 [Compound 13e, 1-methyl-8-(3-(trifluoromethyl)phenethyl)-6,7,8,9-tetrahydropyrazino[2,1-f]purine-2,4(1H,3H)-dione]"
> 1000 nM,16%,5%,> 10000 nM,1690 nM,> 1000 nM,> 1500 nM,,19%,41%,,,"CCn1c(=O)c2c(nc3n2CCN(Cc2ccc(Cl)cc2C(F)(F)F)C3)n(CC)c1=O [Compound 15o, 8-(4-chloro-2-(trifluoromethyl)benzyl)-1,3-diethyl-6,7,8,9-tetrahydropyrazino[2,1-f]purine-2,4(1H,3H)-dione]"
